Measured values reported in ChEMBL document CHEMBL4828744, “Design, synthesis and biological evaluation of pyridinylmethylenepiperidine derivatives as potent 5-HT1F receptor agonists for migraine therapy” (Eur J Med Chem, 2021).
Active and inactive are the calls of the source. No cut-off for these calls is given here.

How the values were obtained:
[1] = AUC (0 to 24hrs) in Sprague-Dawley rat at 150 mg/kg, ig by LC-MS/MS analysis; assay type: ADME, organism-based; set-up: time < 24 hr, route intragastric, dose 150 mg/kg; conditions: in vivo, po
[2] = Cmax in monkey at 5 mg/kg, ig administered for 28 days by LC-MS/MS analysis; assay type: ADME, organism-based, Macaca mulatta; set-up: route intragastric, time 28 day, dose 5 mg/kg; conditions: rhesus monkey, in vivo, po
[3] = Toxicity in Sprague-Dawley rat assessed as effect on body weight at 150 mg/kg/day, ig administered for 28 days; assay type: organism-based; conditions: in vivo, po, 672 h, time 28 day
[4] = Toxicity in NewZealand rabbit Saphenous vein rings assessed as induction of vasoconstriction at 0.01 to 100 uM; assay type: tissue-based, Oryctolagus cuniculus; conditions: dose 0.01-100 µM
[5] = AUC(0 to t) in Sprague-Dawley rat at 1 mg/kg, iv measured for 24 hrs by LC-MS/MS analysis; assay type: ADME, organism-based; set-up: time 24 hrs, dose 1 mg/kg; conditions: in vivo
[6] = Cmax in monkey at 25 mg/kg, ig administered for 28 days by LC-MS/MS analysis; assay type: ADME, organism-based, Macaca mulatta; set-up: route intragastric, dose 25 mg/kg, time 28 day; conditions: rhesus monkey, in vivo, po
[7] = AUC (0 to 24hrs) in Sprague-Dawley rat at 50 mg/kg, ig by LC-MS/MS analysis; assay type: ADME, organism-based; set-up: time < 24 hr, route intragastric, dose 50 mg/kg; conditions: in vivo, po
[8] = target: T1, 5-hydroxytryptamine receptor 3A (Homo sapiens, UniProt P46098); experiment: Binding affinity to human 5HT3 receptor
T1 sequence (P46098 whole entry): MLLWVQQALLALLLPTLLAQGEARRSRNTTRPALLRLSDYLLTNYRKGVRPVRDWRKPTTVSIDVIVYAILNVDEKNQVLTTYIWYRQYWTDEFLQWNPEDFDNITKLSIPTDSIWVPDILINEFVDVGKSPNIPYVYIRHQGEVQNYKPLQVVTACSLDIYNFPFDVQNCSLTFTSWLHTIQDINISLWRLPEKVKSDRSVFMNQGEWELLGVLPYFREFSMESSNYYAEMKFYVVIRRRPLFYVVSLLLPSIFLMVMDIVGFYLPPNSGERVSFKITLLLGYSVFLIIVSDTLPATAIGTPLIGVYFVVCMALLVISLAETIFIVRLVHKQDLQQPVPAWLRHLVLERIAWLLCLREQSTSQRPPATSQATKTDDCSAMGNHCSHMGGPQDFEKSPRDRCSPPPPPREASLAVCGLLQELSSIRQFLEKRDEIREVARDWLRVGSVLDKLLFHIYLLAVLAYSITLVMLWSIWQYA

[9] = target: T2, 5-hydroxytryptamine receptor 1F (Homo sapiens, UniProt P30939); experiment: Agonist activity at 5HT1F receptor (unknown origin) expressed in HEK293 cells measured after 60 mins by Fluo-4AM dye based FLIPR assay; assay type: functional, cell-based; conditions: read-out: IC50 (the source's name)
T2 sequence (P30939 whole entry): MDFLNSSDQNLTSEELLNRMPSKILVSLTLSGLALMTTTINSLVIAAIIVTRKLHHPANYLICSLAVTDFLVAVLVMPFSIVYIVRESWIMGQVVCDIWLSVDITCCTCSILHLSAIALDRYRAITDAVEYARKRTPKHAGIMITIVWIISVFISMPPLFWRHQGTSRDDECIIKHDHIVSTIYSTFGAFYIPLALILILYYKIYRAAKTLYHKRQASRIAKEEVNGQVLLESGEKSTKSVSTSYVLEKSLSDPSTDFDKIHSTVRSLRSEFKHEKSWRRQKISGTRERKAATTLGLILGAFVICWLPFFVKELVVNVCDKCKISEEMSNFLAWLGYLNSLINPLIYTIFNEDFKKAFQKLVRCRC

[10] = AUC (0 to 24hrs) in monkey at 5 mg/kg, ig by LC-MS/MS analysis; assay type: ADME, organism-based, Macaca mulatta; set-up: time < 24 hr, route intragastric, dose 5 mg/kg; conditions: rhesus monkey, in vivo, po
[11] = target: 5-HT1B/5-HT1F (Homo sapiens) (UniProt P30939+P28222); experiment: Selectivity ratio of IC50 for human 5HT1B receptor to IC50 for human 5HT1F receptor; assay type: protein assay
Chain of 5-HT1B/5-HT1F (Homo sapiens) (P28222 whole entry, looked up, one chain of several): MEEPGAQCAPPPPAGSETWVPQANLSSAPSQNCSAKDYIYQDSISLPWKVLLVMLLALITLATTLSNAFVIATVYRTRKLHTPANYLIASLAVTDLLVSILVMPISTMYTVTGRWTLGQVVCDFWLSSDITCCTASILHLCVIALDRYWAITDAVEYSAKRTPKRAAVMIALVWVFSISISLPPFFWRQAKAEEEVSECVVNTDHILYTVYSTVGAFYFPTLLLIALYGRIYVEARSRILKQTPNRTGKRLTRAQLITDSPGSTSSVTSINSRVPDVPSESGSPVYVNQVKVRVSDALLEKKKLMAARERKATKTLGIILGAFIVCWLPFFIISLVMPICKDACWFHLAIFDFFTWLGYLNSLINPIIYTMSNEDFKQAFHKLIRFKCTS

[12] = Toxicity in ig dosed monkey administered for 28 days; assay type: organism-based, Macaca mulatta; conditions: rhesus monkey, in vivo, po; time 28 day
[13] = Cmax in Sprague-Dawley rat at 15 mg/kg, ig administered for 28 days by LC-MS/MS analysis; assay type: ADME, organism-based; set-up: route intragastric, dose 15 mg/kg, time 28 day; conditions: in vivo, po
[14] = Volume of distribution at steady state in Sprague-Dawley rat at 1 mg/kg, iv measured for 24 hrs by LC-MS/MS analysis; assay type: ADME, organism-based; conditions: in vivo, read-out: Vdss
[15] = species on record: Homo sapiens; experiment: Selectivity ratio of IC50 for human 5HT2C receptor to IC50 for human 5HT1F receptor
[16] = Toxicity in Sprague-Dawley rat assessed as effect on inflammatory reaction at 150 mg/kg/day, ig administered for 28 days; assay type: organism-based; conditions: in vivo, po, 672 h, time 28 day
[17] = AUC (0 to 24hrs) in Sprague-Dawley rat at 15 mg/kg, ig by LC-MS/MS analysis; assay type: ADME, organism-based; set-up: time < 24 hr, route intragastric, dose 15 mg/kg; conditions: in vivo, po
[18] = tested on: Rattus norvegicus; experiment: Antimigraine activity against electrical stimulation of trigeminal ganglion migraine Wistar rat model assessed as reduction in dural plasma protein extravasation at 0.01 to 0.1 ug/kg, po measured after 45 mins by confocal fluorescence microscopic analysis; assay type: functional, organism-based; conditions: dose 0.01-0.1 µg/kg

- AUC(0-t) at 24 h [1]: 10200 ng·h/mL
- Cmax [2]: 3410 ng/mL
- AUC(0-t) at 24 h [5]: 128 ng·h/mL
- Cmax [6]: 3630 ng/mL
- AUC(0-t) at 24 h [7]: 5290 ng·h/mL
- IC50 [8]: > 10000 nM
- EC50 [9]: 19.6 nM
- AUC(0-t) at 24 h [10]: 45200 ng·h/mL
- Ratio IC50 [11]: > 10000
- Cmax [13]: 160 ng/mL
- Vd [14]: 12.8 L/kg
- Ratio IC50 [15]: > 10000
- AUC(0-t) at 24 h [17]: 849 ng·h/mL
SMILES: CN1CCC(=C(F)c2cccc(NC(=O)c3c(F)cc(F)cc3F)n2)CC1
- Activity [3]: Non-Toxic
- Activity [4]: Non-Toxic
- NOAEL at 672 h [12]: 5 mg/kg/day
- Activity [16]: Non-Toxic
- Activity [18]: Active
